Results: patent publication US3941777A, “Compounds having juvenile hormone activity” (A/S Cheminova, priority 1973, dated 1976)
In brackets after ≈: the same amount, converted by molar mass.

Assays:
[1] = tested on: Culex pipiens L.; assay: Culex test: mature larvae, loss of 50% of the test animals; type: in vivo; conditions: concentration producing a loss of 50% of the test animals, read-out: Culex test IC-50 eclos.
Description: Culex test: The compounds were tested on mature larvae of Culex pipiens. (IC-50 eclos.) in ppm.

[2] = tested on: Tenebrio molitor L.; assay: Tenebrio test: topical application to pupae, inhibition of adult characters; type: in vivo; conditions: topical in acetone to abdomen of 0.5 to 2 hours old pupae; 27°C, 70% RH; ecdysis 5 to 7 days later; perfect adult 0%, perfect second pupa 100%
Description: The biological tests are examplified by tests on Tenebrio molitor L., Galleria mellonella L. and Culex pipiens L. Tenebrio test: The material in question is applied topically to the abdomen of 0.5 to 2 hours old pupae of the said specimen, as a solution in acetone. The pupae are held at 27°C and 70% RH, ecdysis occuring 5 to 7 days later. The degree of inhibition of adult characters is refered to an arbitrary scale, a morphologically perfect adult given the character 0%, a perfect second pupa 100%.

CC(C)=CCCC(C)=CCON=Cc1ccccc1 [Compound 1, Benzaldoxime-0-geranyl ether]
LC50 [1]: < 1 µg/mL
Tenebrio test ID-50 morph. [2]: 0,05 μg/pupa

CC(=CCON=Cc1ccccc1)CCC1OC1(C)C (stereo not drawn) [Compound 2, Benzaldoxime-O-epoxygeranyl ether]
Tenebrio test ID-50 morph. [2]: > 0,1 μg/pupa

CCC(C)=CCCC(=CCON=Cc1ccccc1)CC [Compound 4, Benzaldoxime-O-(3-ethyl-7-methyl-2,6-nonadiene-1-yl)-ether]
Tenebrio test ID-50 morph. [2]: 0,01 μg/pupa

CC(C)=CCCC(C)=CCON=Cc1ccc2c(c1)OCO2 [Compound 5, Piperonaloxime-O-geranyl ether]
LC50 [1]: 1 µg/mL (≈ 3.32 µM)
Tenebrio test ID-50 morph. [2]: > 100 μg/pupa

CC(C)=CCCC(C)=CCON=Cc1ccc(C)cc1 [Compound 6, p-Tolualdoxime-O-geranyl ether]
LC50 [1]: 10 µg/mL (≈ 36.8 µM)
Tenebrio test ID-50 morph. [2]: 50 μg/pupa

CC(C)=CCCC(C)=CCON=Cc1cccnc1 [Compound 7, 3-Pyridinealdoxime-O-geranyl ether]
Tenebrio test ID-50 morph. [2]: 10 μg/pupa

CC(C)=CCCC(C)CCON=Cc1ccccc1 (stereo not drawn) [Compound 8, Benzaldoxime-O-citronellyl ether]
LC50 [1]: < 10 µg/mL
Tenebrio test ID-50 morph. [2]: > 100 μg/pupa

CCC(C)=CCON=Cc1ccc2c(c1)OCO2 [Compound 9, Piperonaloxime-O-(3-methyl-2-pentene-1-yl)-ether]
LC50 [1]: 0.02 µg/mL (≈ 0.0809 µM)
Tenebrio test ID-50 morph. [2]: 10 μg/pupa

CCC(C)=CCON=Cc1ccccc1 [Compound 10, Benzaldoxime-O-(3-methyl-2-pentene-1-yl)-ether]
LC50 [1]: 1 µg/mL (≈ 4.92 µM)
Tenebrio test ID-50 morph. [2]: > 100 μg/pupa

CCC(C)=CCCON=Cc1ccc2c(c1)OCO2 [Compound 11, Piperonaloxime-O-(4-methyl-3-hexene-1-yl)-ether]
LC50 [1]: 0.5 µg/mL (≈ 1.91 µM)
Tenebrio test ID-50 morph. [2]: > 100 μg/pupa

CCC(C)=CCCON=Cc1ccccc1 [Compound 12, Benzaldoxime-O-(4-methyl-3-hexene-1-yl)-ether]
LC50 [1]: < 10 µg/mL
Tenebrio test ID-50 morph. [2]: > 100 μg/pupa

CC(C)=CCCC(C)=CCON=CCO [Compound 13, Glycollicaldoxime-O-geranyl ether]
LC50 [1]: 10 µg/mL (≈ 47.3 µM)
Tenebrio test ID-50 morph. [2]: 50 μg/pupa

CCOC(=O)C=NOCC=C(C)CCC=C(C)C [Compound 14, Glyoxylic acid ethylester aldoxime-O-geranyl ether]
LC50 [1]: 1 µg/mL (≈ 3.95 µM)
Tenebrio test ID-50 morph. [2]: 1 μg/pupa

CCOC(=O)C=NOCC=C(C)CCC1OC1(C)C (stereo not drawn) [Compound 15, Glyoxylic acid ethylester aldoxime-O-(epoxygeranyl)-ether]
LC50 [1]: 1 µg/mL (≈ 3.71 µM)
Tenebrio test ID-50 morph. [2]: 1 μg/pupa

CCOC(=O)C=NOCC=C(C)CCCC(C)(C)OCC [Compound 16, Glyoxylic acid ethylester aldoxime-O-(7-ethoxy-geranyl)-ether]
LC50 [1]: 1 µg/mL (≈ 3.34 µM)
Tenebrio test ID-50 morph. [2]: 1 μg/pupa
